{"source": "paper PMC12238723", "about": "“Phase I Clinical Trial of CVL218, a Novel PARP1/2 Inhibitor, in Patients with Advanced Solid Tumors” (MedComm, 2025)", "key": {"[1]": {"assay": "Plasma PK after a single oral dose (Cycle 0 Day 1)", "assay_type": "in vivo, patients", "procedure": "CVL218 was administered orally, and this dose‐escalation trial included nine dose levels: 100 mg QD (50 mg BID), 200 mg QD (100 mg BID), 400 mg QD (200 mg BID), 700 mg QD (350 mg BID), 1000 mg QD (500 mg BID), 1200 mg QD (600 mg BID), 1400 mg QD (700 mg BID), 1700 mg QD (850 mg BID), and 2000 mg QD (1000 mg BID). Patients enrolled in the study received a single oral dose on the first day, followed by continuous multiple dosing (twice a day taking 12 h apart) after 72 h, with the treatment cycle lasting 4 weeks. The period during which patients received a single dose is designated as cycle 0 (C0), lasting 72 h. After this period, patients begin multiple dosing, referred to as cycle 1 (C1). An initial accelerated titration design was employed for the three lowest dose groups, and the “3+3” design was applied starting with the 300 mg BID cohort.\nA clinical PK study of CVL218 was conducted, involving blood samples collection during single‐dose administration (before treatment and 0.5, 1, 2, 3, 4, 5, 6, 8, 10, 12, and 24 h after treatment on C0D1) and multiple dosing (before treatment and 0.5, 1, 2, 3, 4, 5, 6, 8, 10, and 12 h after treatment on C1D1; before treatment on C1D8, C1D15, and C1D22; before treatment and 0.5, 1, 2, 3, 4, 5, 6, 8, 10, and 12 h after treatment on C1D28)\nSingle‐dose and multiple‐dose PK parameters included C max, T max, elimination half‐life (T 1/2), AUC0– t , AUC0–inf, oral clearance (CL/F), and apparent volume of distribution (V z/F) for CVL218. Tumor response was assessed per RECIST 1.1. ORR was defined as proportion of patients with a CR or PR on at least one visit, while DCR was defined as proportion of patients with a CR or PR or SD. PFS was defined as the time from the first dose of either drug to investigator assessed radiologic PD or to death of any cause. PFS would be censored at the time of last tumor assessment.\nSubjects who received at least one dose of CVL218 with postadministration safety records were included in safety analysis set. Subjects who received at least one dose of CVL218 with at least one evaluable PK parameter were included in PK analysis set. Per‐protocol set were used for efficacy analysis. Descriptive statistics of safety were presented per CTCAE v5.0. The PK parameters T max and T 1/2 were shown as the median (min, max) and mean ± SD, respectively. A two‐sided p < 0.05 was considered to indicate statistical significance. Statistical analysis was performed by using GraphPad prism 8.0.2 and R‐4.3.3."}, "[2]": {"tested_on": "human ether‐a‐go‐go‐related gene channel", "design": "method as in PMID 27926532, PMID 36283983", "conditions": "cited from earlier work"}, "[3]": {"conditions": "single dose C0D1, 100mg QD, n 1"}, "[4]": {"conditions": "single dose C0D1, 200mg QD, n 1"}, "[5]": {"conditions": "single dose C0D1, 400mg QD, n 1"}, "[6]": {"conditions": "single dose C0D1, 700mg QD, n 4"}, "[7]": {"conditions": "single dose C0D1, 1000mg QD, n 4"}, "[8]": {"conditions": "single dose C0D1, 1200mg QD, n 4"}, "[9]": {"conditions": "single dose C0D1, 1400mg QD, n 6"}, "[10]": {"conditions": "single dose C0D1, 1700mg QD, n 5"}}, "data": [{"compound": "CNCc1ccc(-c2cc3cc(F)cc(C(N)=O)c3o2)cc1.Cl", "note": "[CVL218]", "values": [{"measurement": "AUC0-inf, Geometric Mean", "setting": "[1]; [3]", "value": 231.0, "unit": "ng·h/mL"}, {"measurement": "AUC0-t, Geometric Mean", "setting": "[1]; [3]", "value": 207.0, "unit": "ng·h/mL"}, {"measurement": "Cl/F, Geometric Mean", "setting": "[1]; [3]", "value": 432000.0, "unit": "mL/h"}, {"measurement": "Cmax, Geometric Mean", "setting": "[1]; [3]", "value": 40.9, "unit": "ng/mL"}, {"measurement": "T1/2, Mean", "setting": "[1]; [3]", "value": 3.6, "unit": "h"}, {"measurement": "Vz/F, Geometric Mean", "setting": "[1]; [3]", "value": 2270000.0, "unit": "mL"}, {"measurement": "AUC0-inf, Geometric Mean", "setting": "[1]; [4]", "value": 1360.0, "unit": "ng·h/mL"}, {"measurement": "AUC0-t, Geometric Mean", "setting": "[1]; [4]", "value": 1310.0, "unit": "ng·h/mL"}, {"measurement": "Cl/F, Geometric Mean", "setting": "[1]; [4]", "value": 147000.0, "unit": "mL/h"}, {"measurement": "Cmax, Geometric Mean", "setting": "[1]; [4]", "value": 218.0, "unit": "ng/mL"}, {"measurement": "T1/2, Mean", "setting": "[1]; [4]", "value": 5.1, "unit": "h"}, {"measurement": "Vz/F, Geometric Mean", "setting": "[1]; [4]", "value": 1080000.0, "unit": "mL"}, {"measurement": "AUC0-inf, Geometric Mean", "setting": "[1]; [5]", "value": 2010.0, "unit": "ng·h/mL"}, {"measurement": "AUC0-t, Geometric Mean", "setting": "[1]; [5]", "value": 1900.0, "unit": "ng·h/mL"}, {"measurement": "Cl/F, Geometric Mean", "setting": "[1]; [5]", "value": 199000.0, "unit": "mL/h"}, {"measurement": "Cmax, Geometric Mean", "setting": "[1]; [5]", "value": 334.0, "unit": "ng/mL"}, {"measurement": "T1/2, Mean", "setting": "[1]; [5]", "value": 6.0, "unit": "h"}, {"measurement": "Vz/F, Geometric Mean", "setting": "[1]; [5]", "value": 1710000.0, "unit": "mL"}, {"measurement": "AUC0-inf, Geometric Mean", "setting": "[1]; [6]", "value": 3450.0, "unit": "ng·h/mL"}, {"measurement": "AUC0-t, Geometric Mean", "setting": "[1]; [6]", "value": 3260.0, "unit": "ng·h/mL"}, {"measurement": "Cl/F, Geometric Mean", "setting": "[1]; [6]", "value": 203000.0, "unit": "mL/h"}, {"measurement": "Cmax, Geometric Mean", "setting": "[1]; [6]", "value": 360.0, "unit": "ng/mL"}, {"measurement": "T1/2, Mean", "setting": "[1]; [6]", "value": 6.3, "unit": "h"}, {"measurement": "Vz/F, Geometric Mean", "setting": "[1]; [6]", "value": 1700000.0, "unit": "mL"}, {"measurement": "AUC0-inf, Geometric Mean", "setting": "[1]; [7]", "value": 4820.0, "unit": "ng·h/mL"}, {"measurement": "AUC0-t, Geometric Mean", "setting": "[1]; [7]", "value": 4095.0, "unit": "ng·h/mL"}, {"measurement": "Cl/F, Geometric Mean", "setting": "[1]; [7]", "value": 212000.0, "unit": "mL/h"}, {"measurement": "Cmax, Geometric Mean", "setting": "[1]; [7]", "value": 579.5, "unit": "ng/mL"}, {"measurement": "T1/2, Mean", "setting": "[1]; [7]", "value": 6.2, "unit": "h"}, {"measurement": "Vz/F, Geometric Mean", "setting": "[1]; [7]", "value": 2205000.0, "unit": "mL"}, {"measurement": "AUC0-inf, Geometric Mean", "setting": "[1]; [8]", "value": 4415.0, "unit": "ng·h/mL"}, {"measurement": "AUC0-t, Geometric Mean", "setting": "[1]; [8]", "value": 4175.0, "unit": "ng·h/mL"}, {"measurement": "Cl/F, Geometric Mean", "setting": "[1]; [8]", "value": 276000.0, "unit": "mL/h"}, {"measurement": "Cmax, Geometric Mean", "setting": "[1]; [8]", "value": 547.5, "unit": "ng/mL"}, {"measurement": "T1/2, Mean", "setting": "[1]; [8]", "value": 6.3, "unit": "h"}, {"measurement": "Vz/F, Geometric Mean", "setting": "[1]; [8]", "value": 2155000.0, "unit": "mL"}, {"measurement": "AUC0-inf, Geometric Mean", "setting": "[1]; [9]", "value": 5360.0, "unit": "ng·h/mL"}, {"measurement": "AUC0-t, Geometric Mean", "setting": "[1]; [9]", "value": 5190.0, "unit": "ng·h/mL"}, {"measurement": "Cl/F, Geometric Mean", "setting": "[1]; [9]", "value": 274500.0, "unit": "mL/h"}, {"measurement": "Cmax, Geometric Mean", "setting": "[1]; [9]", "value": 633.0, "unit": "ng/mL"}, {"measurement": "T1/2, Mean", "setting": "[1]; [9]", "value": 4.7, "unit": "h"}, {"measurement": "Vz/F, Geometric Mean", "setting": "[1]; [9]", "value": 1920000.0, "unit": "mL"}, {"measurement": "AUC0-inf, Geometric Mean", "setting": "[1]; [10]", "value": 4180.0, "unit": "ng·h/mL"}, {"measurement": "AUC0-t, Geometric Mean", "setting": "[1]; [10]", "value": 4070.0, "unit": "ng·h/mL"}, {"measurement": "Cl/F, Geometric Mean", "setting": "[1]; [10]", "value": 407000.0, "unit": "mL/h"}, {"measurement": "Cmax, Geometric Mean", "setting": "[1]; [10]", "value": 408.0, "unit": "ng/mL"}, {"measurement": "T1/2, Mean", "setting": "[1]; [10]", "value": 5.8, "unit": "h"}, {"measurement": "Vz/F, Geometric Mean", "setting": "[1]; [10]", "value": 2780000.0, "unit": "mL"}, {"measurement": "median Tmax", "setting": "[1]; single dose, range over cohorts", "value": "1 to 4", "unit": "h"}, {"measurement": "mean half-life", "setting": "[1]; single oral dose, range over cohorts", "value": "3.6 to 6.3", "unit": "h"}, {"measurement": "inhibitory activity on the hERG channel", "setting": "[2]", "value": "without inhibitory activity"}]}]}
